{"source": "patent US11883398B2", "about": "“Dipeptidylpeptidase 4 inhibition enhances lymphocyte trafficking, improving both naturally occurring tumor immunity and immunotherapy” (INSTITUT PASTEUR, priority 2015, dated 2024)", "key": {"[1]": {"system": "B16F10 cells", "assay": "Model of metastatic melanoma (intravenous B16F10, lung metastatic foci)", "type": "in vivo, mouse", "settings": "15 days after intravenous injection of B16F10 cells", "experimental": "B16F10 and M04 (Ovalbumin-expressing B16F10 cells, gift from C. Reis e Sousa) tumor cells were cultured in DMEM (Gibco) supplemented with 10% FCS (PAA), 0.1 mM non-essential amino acids, 1 mM sodium pyruvate, 10 mM Hepes, 70 μM beta-mercaptoethanol and 23 μg/ml gentamycin (all from Gibco). CT26 colon carcinoma cells were cultured in RPMI (Gibco) supplemented as described for DMEM. Cells for injections were passaged 1-2 times after thawing, before use. WT and genetically modified mice were subcutaneously injected with 2×10^5 B16 or 5×10^5 CT26 cells in the shaved right flank. When indicated, mice received an intra-tumoral injection of 1 μg of recombinant mCXCL10, 5 μg CpG-A in DOPTAP or vehicle control. […] Tumor height and width were measured with a caliper and tumor volume was calculated (Elliptical volume=width^2×height×0.523). […] 15 days after tumor cell injection, lungs were dissected, placed in Fekete's solution and metastatic foci were counted. […]"}, "[2]": {"system": "B16F10 tumors", "assay": "Histology of B16F10 tumors (CD31, CD3, H&E)", "type": "in vivo, mouse", "settings": "untreated vs sitagliptin-treated mice", "experimental": "B16F10 tumors were dissected and fixed in JB fixative (zinc acetate 0.5%, zinc chloride 0.05%, and calcium acetate 0.05% in Tris buffer, pH 7) for 48 hours, prior to being embedded in low-melting point paraffin (Poly Ethylene Glycol Distearate; Sigma, USA). 5 μm thick paraffin sections were deparafinized in absolute ethanol, air dried, and routinely stained with hematoxylin-eosin or used for immunolabelling. For immunohistochemistry, the following primary antibodies were used: anti-CD3 (rabbit α-human, clone A0452, DAKO, Carpinteria, CA) and anti-CD31 (rat a-mouse, clone 1/75e, BD Pharmingen, Franklin Lake, NJ, USA). CD31 immunolabelled sections were digitalized using a Zeiss Axio Scan Z.1 at ×20. For histomorphometry of blood vessels, CD31 positive profiles were manually delineated on digitalized images, using the “area” tool of the Zen software (Zeiss) at a magnification of 30%. The whole tumor surface was also delineated in the same way at a magnification of 2%. Mean number of blood vessels per mm2 and mean vessel area were then calculated for each group of mice."}, "[3]": {"system": "B16F10 tumors", "assay": "Flow cytometry of leukocytes infiltrating B16F10 tumors", "type": "in vivo, mouse", "experimental": "B16F10 and M04 (Ovalbumin-expressing B16F10 cells, gift from C. Reis e Sousa) tumor cells were cultured in DMEM (Gibco) supplemented with 10% FCS (PAA), 0.1 mM non-essential amino acids, 1 mM sodium pyruvate, 10 mM Hepes, 70 μM beta-mercaptoethanol and 23 μg/ml gentamycin (all from Gibco). CT26 colon carcinoma cells were cultured in RPMI (Gibco) supplemented as described for DMEM. Cells for injections were passaged 1-2 times after thawing, before use. WT and genetically modified mice were subcutaneously injected with 2×10^5 B16 or 5×10^5 CT26 cells in the shaved right flank. When indicated, mice received an intra-tumoral injection of 1 μg of recombinant mCXCL10, 5 μg CpG-A in DOPTAP or vehicle control. For blocking of chemokine and chemokine receptors, WT mice were intraperitoneally injected with 100 μg of hamster a-mCXCR3 (clone CXCR3-173, BioLegend), 100 μg of hamster α-mCCR5 (clone HM-CCR5, BioLegend), 50 μg of rat anti-mCXCL10 (clone 134013, R&D systems) and 20 μg of rat-α-mCXCR4 (clone 2B11/CXCR4, BD Biosciences) or with respective isotype antibodies (hamster IgG (clone HTK888, BioLegend, used as control for mCXCR3 and mCCR5 blockage); rat IgG2a (clone 54447, R&D systems, used as control for mCXCL10 blockade) and rat IgG2b (clone A95-1, BD Biosciences, used as control for mCXCR4 blockade). Intraperitoneal injection was done one day before and 4, 8 and 12 days after tumor cell injection. For CXCL10 neutralization, antibodies were injected on day 2, 5, 8 and 11 after tumor cell injection. For immunotherapy protocols, mice were intraperitoneally injected with 100 μg of mouse α-CTLA-4 (clone 9D9, Bioxcell), 200 μg of PD1 (clone RMP1-14, Bioxcell), a combination of 100 μg of α-CTLA-4+200 μg of a-PD1 or control isotypes (100 μg […] and 200 μg rat IgG2a (clone 2A3), both from Bioxcell) on day 3, 6 and 9 after tumor cell implantation. For adoptive cell transfer experiments, Pmel-1 Thy-1.1^+Thy-1.1^+, Cxcr3^−/− Thy-1.1^+Thy-1.2^+ Pmel-1 or OT1 splenocytes were activated ex-vivo, by incubation with 1 nM of human gp100 (for Pmel-1 cells) or […] (for OT1 cells) peptides for 1h at room temperature with agitation. Splenocytes were then washed and resuspended in R10 supplemented with 30U/mL of recombinant human IL-2. CD8^+ T cells were expanded for 6-7 days before used. For analysis of tumor infiltrates, activated Cxcr3^+/+ Thy-1.1^+Thy-1.1^+ and Cxcr3^−/− Thy-1.1^+Thy-1.2^+ transgenic Pmel-1 CD8^+ T cells were mixed in a 1:1 ratio (total 1×10^6 cells) and injected intravenously into gender matched tumor-bearing mice (3 days after tumor cell injection). For analysis of tumor growth, activated OT1 cells were injected intravenously (1×10^5 cells per mouse) into gender matched tumor-bearing mice, 3 days after tumor cell injection. Tumor height and width were measured with a caliper and tumor volume was calculated (Elliptical volume=width^2×height×0.523). The model of metastatic melanoma was achieved by intravenous injection of 2×10^5 B16 tumor cells. 15 days after tumor cell injection, lungs were dissected, placed in Fekete's solution and metastatic foci were counted. Lungs with more than 100 metastatic nodules were defined as 100.\nFluorochrome-conjugated anti-mouse CD3 (clone145-2C11), CD8 (clone 53-6.7), CD4 (clone RM4-5), NK1.1 (clone PK136), CD49b (clone DX5), CD25 (clone PC61), B220 (clone RA3-6B2), Ly6G (clone 1A8), Ly6C (clone AL-21), CD11 b (clone M1/70) Siglec-F (clone E50-2440), MHCII IA-IE (clone M5/114.15.2), CD45.2 (clones 56-0454-82 and 109830), Thy-1.1 (clone HIS51), Thy-1.2 (clone 53-2.1), DPP4 (clone H194-112) and CXCR3 (clone CXCR3-173) were from eBiosciences and BD Biosciences. Fluorochrome conjugated anti-F4/80 (clone CI:A3-1) was from AbDserotec. For exclusion of dead cells, Live/Dead fixable Aqua reagent (Invitrogen) was used. For all staining protocols, cell suspensions were incubated with mouse CD16/CD32 Fc Blocking antibodies (BD Biosciences) prior to antibody. […]"}, "[4]": {"system": "CT26 tumors", "assay": "Flow cytometry of leukocytes infiltrating CT26 tumors", "type": "in vivo, mouse", "settings": "day 11, sitagliptin vs control"}, "[5]": {"molecular_target": "DPP8 (Homo sapiens, UniProt Q6V1X1)", "sequence (Q6V1X1 whole entry, species assumed)": "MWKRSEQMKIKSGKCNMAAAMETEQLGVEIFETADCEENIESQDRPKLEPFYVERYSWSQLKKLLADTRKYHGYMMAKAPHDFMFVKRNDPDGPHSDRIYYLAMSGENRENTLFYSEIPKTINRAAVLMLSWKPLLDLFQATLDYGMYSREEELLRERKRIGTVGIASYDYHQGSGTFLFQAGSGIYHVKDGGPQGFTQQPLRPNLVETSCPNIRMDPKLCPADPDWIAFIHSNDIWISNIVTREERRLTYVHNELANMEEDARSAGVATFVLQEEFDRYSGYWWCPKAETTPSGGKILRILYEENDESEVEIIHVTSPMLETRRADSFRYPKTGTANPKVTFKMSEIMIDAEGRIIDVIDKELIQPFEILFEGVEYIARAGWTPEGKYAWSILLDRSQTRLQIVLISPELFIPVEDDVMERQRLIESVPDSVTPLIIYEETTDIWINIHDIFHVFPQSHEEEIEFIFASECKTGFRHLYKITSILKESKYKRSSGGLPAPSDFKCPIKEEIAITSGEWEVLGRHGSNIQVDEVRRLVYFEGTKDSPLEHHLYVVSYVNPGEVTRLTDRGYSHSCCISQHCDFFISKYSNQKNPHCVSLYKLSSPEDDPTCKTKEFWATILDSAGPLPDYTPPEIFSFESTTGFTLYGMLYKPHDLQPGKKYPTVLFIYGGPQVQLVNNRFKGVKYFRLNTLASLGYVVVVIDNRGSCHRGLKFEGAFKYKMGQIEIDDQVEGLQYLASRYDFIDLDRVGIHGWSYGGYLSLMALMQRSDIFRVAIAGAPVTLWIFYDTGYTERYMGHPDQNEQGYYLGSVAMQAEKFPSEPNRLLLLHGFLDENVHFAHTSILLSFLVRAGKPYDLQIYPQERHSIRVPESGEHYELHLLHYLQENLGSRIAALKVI", "settings": "Verspohl 2012; Huan et al. 2015; cited from earlier work"}, "[6]": {"system": "MEK1 induced skin tumors", "settings": "Arwert and colleagues; cited from earlier work"}, "[7]": {"settings": "B16F10 tumors, sitagliptin vs control"}}}
{"smiles": "N[C@@H](CC(=O)N1CCn2c(nnc2C(F)(F)F)C1)Cc1cc(F)c(F)cc1F", "note": "[sitagliptin]", "values": [{"measurement": "number of lung metastases", "setting": "[1]", "value": "significantly reduced the number of lung metastases"}, {"measurement": "number and diameter of tumor blood vessels (CD31 staining)", "setting": "[2]", "value": "no difference in the number, nor the diameter of blood vessels"}, {"measurement": "number of CD4+ and CD8+ T cells localized to the tumors", "setting": "[3]; [7]", "value": "significant increase"}, {"measurement": "number of tumor-infiltrating myeloid cells, NK cells, B lymphocytes or CD25hi regulatory T cells", "setting": "[3]; [7]", "value": "no significant differences"}, {"measurement": "CXCL10-mediated trafficking of Pmel-1 cells into B16F10 tumors", "setting": "[3]; adoptive transfer, 12-14 hr after intratumoral mCXCL10", "value": "enhanced"}, {"measurement": "lymphocyte recruitment into the tumor parenchyma after intratumoral mCXCL10", "setting": "[3]; day 7 B16F10 tumors, 12-14 h after injection", "value": "enhanced CXCL10 recruitment of T cells and NK cells"}, {"measurement": "trafficking of B cells, regulatory T cells, eosinophils or neutrophils into tumors after intratumoral mCXCL10", "setting": "[3]; day 7 B16F10 tumors, sitagliptin vs control", "value": "unchanged"}, {"measurement": "infiltration of lymphocytes, including T cell subsets and NK cells, into CT26 tumors", "setting": "[4]", "value": "enhanced infiltration of lymphocytes"}, {"measurement": "number of tumor associated B cells, eosinophils and CD25hi regulatory T cells in CT26 tumors", "setting": "[4]", "value": "did not change"}, {"measurement": "effect on DPP8 activity", "setting": "[5]", "value": "no effect"}, {"measurement": "malignant transformation", "setting": "[6]", "value": "delays malignant transformation"}]}
